Results published in patent US20240327428A1, “Inhibitors of human immunodeficiency virus replication, method of making and method of using thereof” (ASCLETIS BIOSCIENCE CO., LTD., priority 2023, published 2024).

Tests used:
HIV-1IIIB = assay: Inhibition of HIV-1IIIB infection in MT-4 cells (XTT staining); format: cell-based; details: HIV-1IIIB in MT-4 cells; for EC50: 6 days incubation, XTT, read-out: EC50 (50% inhibition of virus replication)
Protocol: (§1) The compounds were evaluated for inhibition of HIV-1IIIB infection and cellular toxicity in MT-4 cells.
(§2) The MT-4 cells and […] used in the HIV-1 inhibition assays were obtained from the AIDS Research and Reference Program (Rockville, MD) and propagated as recommended by the supplier.
(§3) Fifty microliters (50 μL) of MT-4 cells at a density of 1.0×10^4 cells/well in 10% complete RPMI-1640 (10% FBS supplemented with 1% L-glutamine and 1% Penicillin/Streptomycin) media were plated in a 96-well flat bottom plate. One-hundred microliters (100 μL) of each compound at 12 concentrations were added in triplicate followed by 50 μL of HIV-1IIIB at a pre-determined titer. The cultures were incubated for 6 days at 37° C./5% CO2. Following the incubation, the cells were stained with XTT for evaluation of compound efficacy and cellular toxicity, as described below.
(§4) Efficacy and toxicity values for the test materials were derived by measuring the reduction of the tetrazolium dye XTT (2,3-bis(2-methoxy-4-nitro-5-sulfophenyl)-5-[(phenylamino)carbonyl]-2H-tetrazolium hydroxide). XTT in metabolically active cells is metabolized by the mitochondrial enzyme NADPH oxidase to a soluble formazan product. XTT solution was prepared daily as a stock of 1 mg/mL in RPMI-1640 without additives. Phenazine methosulfate (PMS) solution was prepared at 0.15 mg/mL in DPBS and stored in the dark at −20° C. XTT/PMS stock was prepared immediately before use by adding 40 μL of PMS per mL of XTT solution. Fifty μL (50 μL) of XTT/PMS was added to each well of the plate and the plate incubated for 4 hours at 37° C. The 4-hour incubation has been empirically determined to be within the linear response range for XTT dye reduction with the indicated numbers of cells for each assay. The plates were sealed and inverted several times to mix the soluble formazan product and the plate was read at 450 nm (650 nm reference wavelength) with a Molecular Devices SpectraMax Plus 384 96 well plate format spectrophotometer.
(§5) Microsoft Excel 2010 in combination with XLfit4 was used to analyze and graph the data. EC50 (50% inhibition of virus replication), TC50 (50% reduction in cell viability) and a therapeutic index (TC50/EC50) are provided. Raw data for both antiviral activity and toxicity with a graphic representation of the data are provided in a printout summarizing the compound activity.

MT-4 cells = assay: Cellular toxicity in MT-4 cells (XTT staining); format: cell-based; details: 6 days incubation, read-out: TC50 (50% reduction in cell viability)
Protocol: as §1, §2, §3, §4, §5

## Cc1nsc2nc([C@H](Cc3cc(F)cc(F)c3)NC(=O)Cn3nc(C(F)(F)F)c4c3C(F)(F)[C@@H]3C[C@H]43)n(-c3ccc(Cl)c4c(NS(C)(=O)=O)nn(C)c34)c(=O)c12 (atropisomer, axis not shown) [Compound 45]
HIV-1IIIB
  Therapeutic Index (TC50/EC50): >212.8
  EC50: 0.47 nM
MT-4 cells
  CC50: > 100 nM

## Cn1nc(NS(C)(=O)=O)c2c(Cl)ccc(-n3c([C@H](Cc4cc(F)cc(F)c4)NC(=O)Cn4nc(C(F)(F)F)c5c4C(F)(F)[C@@H]4C[C@H]54)nc4onc(-c5ccccc5)c4c3=O)c21 (atropisomer, axis not shown) [Compound 38]
HIV-1IIIB
  EC50: > 100 nM
MT-4 cells
  CC50: > 100 nM

## CS(=O)(=O)Nc1nn(CC(F)(F)F)c2c(-n3c([C@H](Cc4cc(F)cc(F)c4)NC(=O)Cn4nc(C(F)(F)F)c5c4C(F)(F)[C@@H]4C[C@H]54)nc4ncsc4c3=O)ccc(Cl)c12 (atropisomer, axis not shown) [Compound 31]
HIV-1IIIB
  Therapeutic Index (TC50/EC50): >384.6
  EC50: 0.26 nM
MT-4 cells
  CC50: > 100 nM
